Patent US4073891A, “N^2 -Arylsulfonyl-L-argininamides and the pharmaceutically acceptable salts thereof” (Mitsubishi Chemical Industries Limited, priority 1974, dated 1978)

Columns and labels:
mice = test: acute toxicity (LD50), intraperitoneal administration; format: in vivo; details: mice (male, 20 g)
Text: Representative LD50 values, for example, for N^2 -(5,6,7,8-tetrahydro-1-naphthylsulfonyl)-N-(2-methoxyethyl)glycine, N^2 -(7-methyl-2-naphthylsulfonyl)-N-butylglycine and N^2 -(6,7-dimethyl-1-naphthylsulfonyl)-N-(2-methoxyethyl)glycine are above 1,500 milligrams per kilogram, respectively.

thrombin = target: T1, thrombin (Bos taurus, UniProt P00735); test: fibrinogen coagulation time; format: biochemical; details: bovine fibrinogen, thrombin 5 units/ml, borate saline buffer pH 7.4, 25° C; normal coagulation time 50-55 seconds
T1 construct: purchased Mochida Pharmaceutical Co., Ltd
Description: The measurement of the fibrinogen coagulation time was conducted as follows:
Immediately after mixing, the reaction mixture was transferred from the ice bath to a bath maintained at 25° C. Coagulation times were taken as the period between the time of transference to the 25° C bath and the time of the first appearance of fibrin threads. […] The term "concentration required to prolong the coagulation time by a factor of two" is the concentration of an active ingredient required to prolong the normal coagulation time 50-55 seconds to 100-110 seconds.

Row | Concentration required to prolong the coagulation time by a factor of two (thrombin) | Compound | acute toxicity LD50 (mice)
1 |  | CCCCNC(=O)[C@H](CCCNC(=N)N)NS(=O)(=O)c1cccc2c(N(C)C)cccc12 [N^2 -dansyl-N-butyl-L-argininamide, reference compound] | 75 milligrams per kilogram
2 |  | CCCCN(C)C(=O)[C@H](CCCNC(=N)N)NS(=O)(=O)c1cccc2c(N(C)C)cccc12 [N^2 -dansyl-N-methyl-N-butyl-L-argininamide, reference compound] | 70 milligrams per kilogram
3 | 20 µM | CCCCN(CC(=O)O)C(=O)[C@H](CCCNC(=N)N)NS(=O)(=O)c1cccc2c1CCCC2 [Sample 1, N^2-(5,6,7,8-tetrahydro-1-naphthylsulfonyl)-L-arginyl-N-butylglycine] | 
4 | 30 µM | N=C(N)NCCC[C@H](NS(=O)(=O)c1ccc2c(c1)CCCC2)C(=O)N(CC(=O)O)Cc1ccccc1 [Sample 4, N^2-(5,6,7,8-tetrahydro-2-naphthylsulfonyl)-L-arginyl-N-benzylglycine] | 
5 | 0.2 µM | COCCN(CC(=O)O)C(=O)[C@H](CCCNC(=N)N)NS(=O)(=O)c1ccc2ccc(C)cc2c1 [Sample 15, N^2-(7-methyl-2-naphthylsulfonyl)-L-arginyl-N-(2-methoxyethyl)glycine] | 
6 | 14 µM | Cc1ccc2ccc(S(=O)(=O)N[C@@H](CCCNC(=N)N)C(=O)N(CC(=O)O)CC3CCCCC3)cc2c1 [Sample 17, N^2-(7-methyl-2-naphthylsulfonyl)-L-arginyl-N-cyclohexylmethylglycine] | 
7 | 20 µM | COCCN(CC(=O)O)C(=O)[C@H](CCCNC(=N)N)NS(=O)(=O)c1cccc2ccc(C)cc12 [Sample 22, N^2-(7-methyl-1-naphthylsulfonyl)-L-arginyl-N-(2-methoxyethyl)glycine] | 
8 | 4 µM | CCCCN(CC(=O)O)C(=O)[C@H](CCCNC(=N)N)NS(=O)(=O)c1cccc2c(N(C)C)cccc12 [Sample 24, N^2-(5-dimethylamino-1-naphthylsulfonyl)-L-arginyl-N-butylglycine] | 

Row | Compound | Concentration required to prolong the coagulation time by a factor of two (thrombin) | acute toxicity LD50 (mice)
9 | COCCN(CC(=O)O)C(=O)[C@H](CCCNC(=N)N)NS(=O)(=O)c1cccc2c1CCCC2 [Sample 3, N^2-(5,6,7,8-tetrahydro-1-naphthylsulfonyl)-L-arginyl-N-(2-methoxyethyl)glycine] | 10 µM | above 1,500 milligrams per kilogram
10 | CCCCN(CC(=O)O)C(=O)[C@H](CCCNC(=N)N)NS(=O)(=O)c1ccc2ccc(C)cc2c1 [Sample 14, N^2-(7-methyl-2-naphthylsulfonyl)-L-arginyl-N-butylglycine] | 0.3 µM | above 1,500 milligrams per kilogram
11 | COCCN(CC(=O)O)C(=O)[C@H](CCCNC(=N)N)NS(=O)(=O)c1cccc2cc(C)c(C)cc12 [Sample 23, N^2-(6,7-dimethyl-1-naphthylsulfonyl)-L-arginyl-N-(2-methoxyethyl)glycine] | 10 µM | above 1,500 milligrams per kilogram
